Data as given in patent US20240262795A1, “PYRAZINE COMPOUNDS AS INHIBITORS OF FLT3” (Biomea Fusion, Inc., priority 2021, published 2024).

Columns and labels:
Assay type in all cases: cell-based, human
MOLM-13 = experiment: Proliferation inhibition, CellTiter-Glo, MOLM-13; details: Homo sapiens, 96 h; MOLM-13 cells, IC50 (4 days), CellTiter-Glo; read-out: MOLM-13 IC50
From the text: (§1) The proliferation inhibitory effect was investigated in human AML cell lines MOLM-13 (AddexBio: C0003003) and MV-4-11 (ATCC: CRL-9591), and CML cell line […] (ATCC: CRL-3343). Molm-13 is heterozygous for FLT3-ITD mutation, while MV4-11 is homozygous for FLT3-ITD (Quentmeier H, et al., Leukemia. 17(1):120-4). […] Cells were maintained in RPMI-1640 medium (ThermoFisher catalog no. 61870036) supplemented with 10% of Heat Inactivated FBS (ThermoFisher catalog no. A31605) and 1% Pen-Strep (ThermoFisher catalog no. 10378016) and cultured at 37° C. in a humidified incubator with 5% CO2. Cell lines were grown by […], and the cells were maintained in a range 70%-80% confluency.
(§2) ATP is present in all metabolically active cells and is considered as a marker for cell viability and proliferation. Metabolic cell activity was determined using the CellTiter-Glo kit (Promega catalog no. G7572), an ATP monitoring system based on the production of luminescence by the reaction of ATP with added UltraGlo® recombinant luciferase (Kawano et al., 2016, PLOS One, 8; 11(7):e0158888), according to the supplier's experimental recommendations. The assay was based on a 96 well plate format.
(§3) Test compounds were dissolved at 10 mM in DMSO (Sigma catalog no. D8418; purity≥99.9%) and stored at −20° C. Eight concentrations of test compound were assessed in duplicate in an individual test occasion in parallel in the selected cell lines. Gilteratinib and FF-10101 were used as reference compounds and tested in duplicate at eight concentrations. 100% of proliferation is represented by the untreated cells (0.2% DMSO).
(§4) On the day of the experiment, cells were quantified with the cell viability analyzer NucleoCounter (Chemometec NC-200) and diluted with fresh medium to obtain the cell density of about 10,000 cells per 200 μL medium. 200 μL of cell suspension were added into wells in the 96 well plate.
(§5) After 2 hours from seeding cells, compounds at desired concentrations were added using a D300e compound dispenser (Life Sciences Tecan D300) with shaking between each compound dispensed. Assay plates were incubated at 37° C. in a humidified incubator with 5% CO2.
(§6) On day 4 (˜96 hrs after compound addition) assay plates were equilibrated at room temperature for approximately 15 min, and then 40 μL/well of the Promega CellTiterGlo® reagent was added. Contents were mixed for 5 min on an orbital shaker to promote cell lysis, and then incubated at room temperature for an additional 10 min in the dark to stabilize the luminescent signal. Luminescence was read by using a GloMlax GM300 plate reader (Promega) using the luminescence for 96 well plate standard protocol.
(§7) Results were analyzed by GraphPad (Prism) and IC50 values were calculated by non-linear regression using four parameter-logistic equation.

MV-4-11 = experiment: Proliferation inhibition, CellTiter-Glo, MV-4-11; details: Homo sapiens, MV4-11, 96 h; MV-4:11 cells, IC50 (4 days), CellTiter-Glo; read-out: MV-4:11 IC50
From the text: as §1, §2, §3, §4, §5, §6, §7

K-562 = experiment: Proliferation inhibition, CellTiter-Glo, K-562; details: Homo sapiens, K562, 96 h; K-562 cells, IC50 (4 days), CellTiter-Glo; read-out: K-562 IC50
From the text: as §1, §2, §3, §4, §5, §6, §7

| IC50 (MOLM-13) [nM] | IC50 (MV-4-11) [nM] | IC50 (K-562) [nM] | SMILES |
| --- | --- | --- | --- |
| 10 to 100 | 1 to 10 | > 500 | C=CC(=O)N(C)[C@@H](C)C(=O)NCCc1cccc(Nc2nc(N(C)C)c(C)nc2C(N)=O)c1 [Compound 218, 5-(dimethylamino)-6-methyl-3-[3-[2-[[(2S)-2-[methyl(prop-2-enoyl)amino]propanoyl]amino]ethyl]anilino]pyrazine-2-carboxamide] |
| 10 to 100 | 1 to 10 | > 500 | CCc1nc(C(N)=O)c(Nc2cccc(CCNC(=O)C3(N(C)C(=O)/C=C/CN(C)C)CC3)c2)nc1C1CC1 [Compound 220, 5-cyclopropyl-3-[3-[2-[[1-[[(E)-4-(dimethylamino)but-2-enoyl]-methyl-amino]cyclopropanecarbonyl]amino]ethyl]anilino]-6-ethyl-pyrazine-2-carboxamide] |
| 10 to 100 | 10 to 100 | > 500 | C=CC(=O)N(C)[C@@H](C)C(=O)NCCc1cccc(Nc2nc(C3CC3)c(C)nc2C(N)=O)c1 [Compound 222, 5-cyclopropyl-6-methyl-3-[3-[2-[[(2S)-2-[methyl(prop-2-enoyl)amino]propanoyl]amino]ethyl]anilino]pyrazine-2-carboxamide] |
| 10 to 100 | 1 to 10 | > 500 | CCc1nc(C(N)=O)c(Nc2cccc(CCNC(=O)C3(N(C)C(=O)/C=C/CN(C)C)CC3)c2)nc1C [Compound 223, 3-[3-[2-[[1-[[(E)-4-(dimethylamino)but-2-enoyl]-methyl-amino]cyclopropanecarbonyl]amino]ethyl]anilino]-6-ethyl-5-methyl-pyrazine-2-carboxamide] |
| 100 to 500 | 10 to 100 | – | Cc1cc(C(N)=O)c(Nc2cncc(CCNC(=O)[C@H](C)N(C)C(=O)/C=C/CN(C)C)c2)nc1C1CC1 [Compound 323, (S,E)-6-cyclopropyl-2-((5-(2-(2-(4-(dimethylamino)-N-methylbut-2 enamido)propanamido)ethyl)pyridin-3-yl)amino)-5-methylnicotinamide] |
| – | – | > 500 | [2H]C([2H])([2H])N(C/C=C/C(=O)N(C)[C@@H](C)C(=O)NCCc1cccc(Nc2nc(NC(C)C)c(CC)nc2C(N)=O)c1)C([2H])([2H])[2H] [Compound 505, (S,E)-3-((3-(2-(2-(4-(bis(methyl-d3)amino)-N-methylbut-2-enamido)propanamido)ethyl)phenyl)amino)-6-ethyl-5-(isopropylamino)pyrazine-2-carboxamide] |

Further lines, the compound ahead of its results:

| SMILES | IC50 (MOLM-13) [nM] | IC50 (MV-4-11) [nM] | IC50 (K-562) [nM] |
| --- | --- | --- | --- |
| CCc1nc(C(N)=O)c(Nc2cccc(CCNC(=O)[C@H](C)N(C)C(=O)/C=C/CN(C)C)c2)nc1C [Compound 142A, (S,E)-3-((3-(2-(2-(4-(dimethylamino)-N-methylbut-2-enamido)propanamido)ethyl)phenyl)amino)-6-ethyl-5-methylpyrazine-2-carboxamide] | 1 to 10 | 1 to 10 | > 500 |
| CC#CC(=O)N(C)[C@@H](C)C(=O)NCCc1cccc(Nc2nc(N(C)C)c(CC)nc2C(N)=O)c1 [Compound 160, 3-[3-[2-[[(2S)-2-[but-2-ynoyl(methyl)amino]propanoyl]amino]ethyl]anilino]-5-(dimethylamino)-6-ethyl-pyrazine-2-carboxamide] | 10 to 100 | 1 to 10 | > 500 |
| CCc1nc(C(N)=O)c(Nc2cccc(CCNC(=O)[C@H](C)N(C)C(=O)/C(F)=C/CN(C)C)c2)nc1N(C)C [Compound 162, (S,Z)-5-(dimethylamino)-3-((3-(2-(2-(4-(dimethylamino)-2-fluoro-N-methylbut-2-enamido)propanamido)ethyl)phenyl)amino)-6-ethylpyrazine-2-carboxamide] | 100 to 500 | 10 to 100 | > 500 |
| CCc1nc(C(N)=O)c(Nc2cc(F)cc(CCNC(=O)[C@H](C)N(C)C(=O)/C=C/CN(C)C)c2)nc1C [Compound 163, 3-[3-[2-[[(2S)-2-[[(E)-4-(dimethylamino)but-2-enoyl]-methyl-amino]propanoyl]amino]ethyl]-5-fluoro-anilino]-6-ethyl-5-methyl-pyrazine-2-carboxamide] | 1 to 10 | 1 to 10 | > 500 |
| [2H]C([2H])([2H])N(C/C=C/C(=O)N(C)[C@@H](C)C(=O)NCCc1cccc(Nc2nc(C)c(CC)nc2C(N)=O)c1)C([2H])([2H])[2H] [Compound 164, 3-[3-[2-[[(2S)-2-[[(E)-4-[bis(trideuteriomethyl)amino]but-2-enoyl]-methyl-amino]propanoyl]amino]ethyl]anilino]-6-ethyl-5-methyl-pyrazine-2-carboxamide] | 10 to 100 | 1 to 10 | > 500 |
| CCc1nc(C(N)=O)c(Nc2cccc(CCNC(=O)[C@H](C)N(C)C(=O)/C=C/CN3CCC3)c2)nc1C [Compound 202, (S,E)-3-((3-(2-(2-(4-(azetidin-1-yl)-N-methylbut-2-enamido)propanamido)ethyl)phenyl)amino)-6-ethyl-5-methylpyrazine-2-carboxamide] | 1 to 10 | 1 to 10 | > 500 |
| Cc1nc(Nc2cccc(CCNC(=O)[C@H](C)N(C)C(=O)/C=C/CN(C)C)c2)c(C(N)=O)nc1C [Compound 207, 3-[3-[2-[[(2S)-2-[[(E)-4-(dimethylamino)but-2-enoyl]-methyl-amino]propanoyl]amino]ethyl]anilino]-5,6-dimethyl-pyrazine-2-carboxamide] | 10 to 100 | 10 to 100 | > 500 |
| C=CC(=O)N(C)[C@@H](C)C(=O)NCCc1cccc(Nc2nc(C3CC3)c(CC)nc2C(N)=O)c1 [Compound 208, 5-cyclopropyl-6-ethyl-3-[3-[2-[[(2S)-2-[methyl(prop-2-enoyl)amino]propanoyl]amino]ethyl]anilino]pyrazine-2-carboxamide] | 10 to 100 | 1 to 10 | > 500 |
| CC#CC(=O)N(C)[C@@H](C)C(=O)NCCc1cccc(Nc2nc(C3CC3)c(CC)nc2C(N)=O)c1 [Compound 209, 3-[3-[2-[[(2S)-2-[but-2-ynoyl(methyl)amino]propanoyl]amino]ethyl]anilino]-5-cyclopropyl-6-ethyl-pyrazine-2-carboxamide] | 10 to 100 | 1 to 10 | > 500 |
| Cc1nc(C(N)=O)c(Nc2cccc(CCNC(=O)C(C)N(C)C(=O)/C=C/CN(C)C)c2)nc1C1CC1 (stereo not drawn) [Compound 211, 5-cyclopropyl-3-[3-[2-[2-[[(E)-4-(dimethylamino)but-2-enoyl]-methyl-amino]propanoylamino]ethyl]anilino]-6-methyl-pyrazine-2-carboxamide] | 10 to 100 | 1 to 10 | > 500 |
| Cc1nc(Nc2cccc(CCNC(=O)[C@H](C)N(C)C(=O)/C=C/CN3CCC3)c2)c(C(N)=O)nc1C [Compound 214, 3-[3-[2-[[(2S)-2-[[(E)-4-(azetidin-1-yl)but-2-enoyl]-methyl-amino]propanoyl]amino]ethyl]anilino]-5,6-dimethyl-pyrazine-2-carboxamide] | 10 to 100 | 10 to 100 | > 500 |
| C=C(F)C(=O)N(C)[C@@H](C)C(=O)NCCc1cccc(Nc2nc(C3CC3)c(CC)nc2C(N)=O)c1 [Compound 215, 5-cyclopropyl-6-ethyl-3-[3-[2-[[(2S)-2-[2-fluoroprop-2-enoyl(methyl)amino]propanoyl]amino]ethyl]anilino]pyrazine-2-carboxamide] | > 500 | > 500 | > 500 |
| C=CC(=O)N(C)[C@@H](C)C(=O)NCCc1cccc(Nc2nc(C)c(CC)nc2C(N)=O)c1 [Compound 216, 6-ethyl-5-methyl-3-[3-[2-[[(2S)-2-[methyl(prop-2-enoyl)amino]propanoyl]amino]ethyl]anilino]pyrazine-2-carboxamide] | 10 to 100 | 10 to 100 | > 500 |
| CC#CC(=O)N(C)[C@@H](C)C(=O)NCCc1cccc(Nc2nc(N(C)C)c(C)nc2C(N)=O)c1 [Compound 217, 3-[3-[2-[[(2S)-2-[but-2-ynoyl(methyl)amino]propanoyl]amino]ethyl]anilino]-5-(dimethylamino)-6-methyl-pyrazine-2-carboxamide] | 10 to 100 | 10 to 100 | > 500 |
